What is called EC50 is the concentration giving half of the maximal effect. One may read the Emax as the maximal effect, on the per cent scale that the assay sets.

This passage reports EC50 and Emax results from patent US10208019B2, “GLP-1 receptor agonists and uses thereof” (Pfizer Inc., priority 2016, dated 2019).

This experiment deals with human GLP-1R (Homo sapiens, UniProt P43220, G168S). Briefly: CHO GLP-1R Clone H6—Assay 1: HTRF cAMP cell-based functional agonist assay (high GLP-1R density). The following applies: for EC50: read-out: Assay 1 EC50, CHO GLP-1R Clone H6, cAMP HTRF, geometric mean; for Emax: read-out: Assay 1 Emax (%), CHO GLP-1R Clone H6, relative to saturating concentration of full agonist GLP-1 (1 μM), arithmetic mean. (In general: In TR-FRET formats the signal depends on donor and acceptor labels being close together.)

The structures appear in SMILES notation.

Sequence of human GLP-1R (P43220 24-463 G168S limits assumed): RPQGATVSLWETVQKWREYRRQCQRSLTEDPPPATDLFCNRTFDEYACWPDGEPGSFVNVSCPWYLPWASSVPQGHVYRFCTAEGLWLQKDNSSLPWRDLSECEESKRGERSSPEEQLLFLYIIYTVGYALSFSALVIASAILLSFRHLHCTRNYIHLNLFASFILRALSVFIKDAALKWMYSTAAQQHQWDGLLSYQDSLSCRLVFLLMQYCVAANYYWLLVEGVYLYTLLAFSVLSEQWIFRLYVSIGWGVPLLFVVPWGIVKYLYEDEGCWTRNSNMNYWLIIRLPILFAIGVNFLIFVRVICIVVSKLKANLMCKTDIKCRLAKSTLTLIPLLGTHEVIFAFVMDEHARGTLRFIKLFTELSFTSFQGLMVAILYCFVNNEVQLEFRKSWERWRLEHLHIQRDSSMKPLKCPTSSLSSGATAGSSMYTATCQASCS

On to `CN1CCCCC1Cn1c(CN2CCC(c3cccc(OCc4ccc(Cl)cc4F)n3)CC2)nc2ccc(C(=O)O)cc21` (centres unmarked) [Example 11A-10, 2-[(4-{6-[(4-chloro-2-fluorobenzyl)oxy]pyridin-2-yl}piperidin-1-yl)methyl]-1-[(1-methylpiperidin-2-yl)methyl]-1H-benzimidazole-6-carboxylic acid], for which the EC50 is above 20000 nM. On the same count and under the same terms, the figure for `CN1CCOC(CCn2c(CN3CCC(c4cccc(OCc5ccc(Cl)cc5F)n4)CC3)nc3ccc(C(=O)O)cc32)C1` (centres unmarked) [Example 11A-11, 2-[(4-{6-[(4-chloro-2-fluorobenzyl)oxy]pyridin-2-yl}piperidin-1-yl)methyl]-1[2-(4-methylmorpholin-2-yl)ethyl]-1H-benzimidazole-6-carboxylic acid] is above 20000 nM; for `COCCN1CCC(Cn2c(CN3CCC(c4cccc(OCc5ccc(Cl)cc5F)n4)CC3)nc3ccc(C(=O)O)cc32)CC1` [Example 11A-12, 2-[(4-{6-[(4-chloro-2-fluorobenzyl)oxy]pyridin-2-yl}piperidin-1-yl)methyl]-1-{[1-(2-methoxyethyl)piperidin-4-yl]methyl}-1H-benzimidazole-6-carboxylic acid] it is above 20000 nM. As for `COCCN1CCCC(Cn2c(CN3CCC(c4cccc(OCc5ccc(Cl)cc5F)n4)CC3)nc3ccc(C(=O)O)cc32)C1` (centres unmarked) [Example 11A-13, 2-[(4-{6-[(4-chloro-2-fluorobenzyl)oxy]pyridin-2-yl}piperidin-1-yl)methyl]-1-{[1-(2-methoxyethyl)piperidin-3-yl]methyl}-1H-benzimidazole-6-carboxylic acid], the concentration for a half-maximal effect (EC50) is above 20000 nM.

As to `Cn1cc(CCn2c(CN3CCC(c4cccc(OCc5ccc(Cl)cc5F)n4)CC3)nc3ccc(C(=O)O)cc32)cn1` [Example 11A-32, 2-[(4-{6-[(4-chloro-2-fluorobenzyl)oxy]pyridin-2-yl}piperidin-1-yl)methyl]-1-[2-(1-methyl-1H-pyrazol-4-yl)ethyl]-1H-benzimidazole-6-carboxylic acid], the 50% effective concentration (EC50) turned out to be 87 nM and the maximum response (Emax) turned out to be 83%. The matching figures for `Cc1cc(Cn2c(CN3CCC(c4cccc(OCc5ccc(Cl)cc5F)n4)CC3)nc3ccc(C(=O)O)cc32)no1` [Example 11A-35, 2-[(4-{6-[(4-chloro-2-fluorobenzyl)oxy]pyridin-2-yl}piperidin-1-yl)methyl]-1-[(5-methyl-1,2-oxazol-3-yl)methyl]-1H-benzimidazole-6-carboxylic acid]: 110 nM and 74%. Consider `Cn1cc(Cn2c(CN3CCC(c4cccc(OCc5ccc(Cl)cc5F)n4)CC3)nc3ccc(C(=O)O)cc32)nn1` [Example 11A-36, 2-[(4-{6-[(4-chloro-2-fluorobenzyl)oxy]pyridin-2-yl}piperidin-1-yl)methyl]-1-[(1-methyl-1H-1,2,3-triazol-4-yl)methyl]-1H-benzimidazole-6-carboxylic acid], for which the concentration for a half-maximal effect (EC50) is 110 nM and the Emax came to 79%. Regarding `COCCCn1c(CN2CCC(c3cccc(OCc4ccc(Cl)cc4F)n3)CC2)nc2ccc(C(=O)O)cc21` [Example 11A-38, 2-[(4-{6-[(4-chloro-2-fluorobenzyl)oxy]pyridin-2-yl}piperidin-1-yl)methyl]-1-(3-methoxypropyl)-1H-benzimidazole-6-carboxylic acid], the EC50 was found to be 120 nM and the maximum response (Emax) came to 80%. As to `CCn1ccnc1Cn1c(CN2CCC(c3cccc(OCc4ccc(Cl)cc4F)n3)CC2)nc2ccc(C(=O)O)cc21` [Example 11A-39, 2-[(4-{6-[(4-chloro-2-fluorobenzyl)oxy]pyridin-2-yl}piperidin-1-yl)methyl]-1-[(1-ethyl-1H-imidazol-2-yl)methyl]-1H-benzimidazole-6-carboxylic acid], the concentration for a half-maximal effect (EC50) worked out at 130 nM and the Emax was 80%. The matching figures for `O=C(O)c1ccc2nc(CN3CCC(c4cccc(OCc5ccc(Cl)cc5F)n4)CC3)n(CC3CCCOC3)c2c1` (centres unmarked) [Example 11A-40, 2-[(4-{6-[(4-chloro-2-fluorobenzyl)oxy]pyridin-2-yl}piperidin-1-yl)methyl]-1-(tetrahydro-2H-pyran-3-ylmethyl)-1H-benzimidazole-6-carboxylic acid]: 170 nM and 77%.

As to `O=C(O)c1ccc2nc(CN3CCC(c4cccc(OCc5ccc(Cl)cc5F)n4)CC3)n(CCc3c[nH]cn3)c2c1` [Example 11A-41, 2-[(4-{6-[(4-chloro-2-fluorobenzyl)oxy]pyridin-2-yl}piperidin-1-yl)methyl]-1-[2-(1H-imidazol-4-yl)ethyl]-1H-benzimidazole-6-carboxylic acid], the EC50 amounted to 190 nM and the Emax was determined as 74%.

Turning to `CN1CC(Cn2c(CN3CCC(c4cccc(OCc5ccc(Cl)cc5F)n4)CC3)nc3ccc(C(=O)O)cc32)CC1=O` (centres unmarked) [Example 11A-42, 2-[(4-{6-[(4-chloro-2-fluorobenzyl)oxy]pyridin-2-yl}piperidin-1-yl]methyl]-1-[(1-methyl-5-oxopyrrolidin-3-yl)methyl]-1H-benzimidazole-6-carboxyl ic acid], the concentration giving a half-maximal response (EC50) was determined as 190 nM. Consider `Cn1cc(Cn2c(CN3CCC(c4cccc(OCc5ccc(Cl)cc5F)n4)CC3)nc3ccc(C(=O)O)cc32)cn1` [Example 11A-43, 2-[(4-{6-[(4-chloro-2-fluorobenzyl)oxy]pyridin-2-yl}piperidin-1-yl)methyl]-1-[(1-methyl-1H-pyrazol-4-yl)methyl]-1H-benzimidazole-6-carboxylic acid], for which the concentration for a half-maximal effect (EC50) was 190 nM and the Emax is 80%. As to `Cn1cc(CCn2c(CN3CCC(c4cccc(OCc5ccc(Cl)cc5F)n4)CC3)nc3ccc(C(=O)O)cc32)nn1` [Example 11A-44, 2-[(4-{6-[(4-chloro-2-fluorobenzyl)oxy]pyridin-2-yl}piperidin-1-yl)methyl]-1-[2-(1-methyl-1H-1,2,3-triazol-4-yl)ethyl]-1H-benzimidazole-6-carboxylic acid], the EC50 amounted to 210 nM and the Emax was 77%. For `COC[C@H](C)n1c(CN2CCC(c3cccc(OCc4ccc(Cl)cc4F)n3)CC2)nc2ccc(C(=O)O)cc21` [Example 11A-45, 2-[(4-{6-[(4-chloro-2-fluorobenzyl)oxy]pyridin-2-yl}piperidin-1-yl)methyl]-1-[(2S)-1-methoxypropan-2-yl]-1H-benzimidazole-6-carboxylic acid], the 50% effective concentration (EC50) was 290 nM and the Emax was determined as 74%. The matching figures for `COC[C@@H](C)n1c(CN2CCC(c3cccc(OCc4ccc(Cl)cc4F)n3)CC2)nc2ccc(C(=O)O)cc21` [Example 11A-46, 2-[(4-{6-[(4-chloro-2-fluorobenzyl)oxy]pyridin-2-yl}piperidin-1-yl]methyl]-1-[(2R)-1-methoxypropan-2-yl]-1H-benzimidazole-6-carboxylic acid]: 300 nM and 66%.

Consider `Cc1cc(Cn2c(CN3CCC(c4cccc(OCc5ccc(Cl)cc5F)n4)CC3)nc3ccc(C(=O)O)cc32)on1` [Example 11A-47, 2-[(4-{6-[(4-chloro-2-fluorobenzyl)oxy]pyridin-2-yl}piperidin-1-yl]methyl]-1-[(3-methyl-1,2-oxazol-5-yl)methyl]-1H-benzimidazole-6-carboxylic acid], for which the EC50 was determined as 320 nM and the Emax was 79%.

With `O=C(O)c1ccc2nc(CN3CCC(c4cccc(OCc5ccc(Cl)cc5F)n4)CC3)n(CC3CCOCC3)c2c1` [Example 11A-49, 2-[(4-{6-[(4-chloro-2-fluorobenzyl)oxy]pyridin-2-yl}piperidin-1-yl)methyl]-1-(tetrahydro-2H-pyran-4-ylmethyl)-1H-benzimidazole-6-carboxylic acid], the 50% effective concentration (EC50) was 380 nM and the Emax was found to be 68%. The matching figures for `O=C(O)c1ccc2nc(CN3CCC(c4cccc(OCc5ccc(Cl)cc5F)n4)CC3)n(CCN3CCOCC3)c2c1` [Example 11A-50, 2-[(4-{6-[(4-chloro-2-fluorobenzyl)oxy]pyridin-2-yl}piperidin-1-yl)methyl]-1-[2-(morpholin-4-yl)ethyl]-1H-benzimidazole-6-carboxylic acid]: 380 nM and 75%.

Take `O=C(O)c1ccc2nc(CN3CCC(c4cccc(OCc5ccc(Cl)cc5F)n4)CC3)n(CC3CC(F)(F)C3)c2c1` [Example 11A-51, 2-[(4-{6-[(4-chloro-2-fluorobenzyl)oxy]pyridin-2-yl}piperidin-1-yl)methyl]-1-[(3,3-difluorocyclobutyl)methyl]-1H-benzimidazole-6-carboxylic acid]: the EC50 amounted to 390 nM and the Emax is 69%.

As for `CC(c1nncn1C)n1c(CN2CCC(c3cccc(OCc4ccc(Cl)cc4F)n3)CC2)nc2ccc(C(=O)O)cc21` (centres unmarked) [Example 11A-52, 2-[(4-{6-[(4-chloro-2-fluorobenzyl)oxy]pyridin-2-yl}piperidin-1-yl)methyl]-1-[1-(4-methyl-4H-1,2,4-triazol-3-yl)ethyl]-1H-benzimidazole-6-carboxylic acid], the concentration giving a half-maximal response (EC50) was 440 nM and the Emax was 86%. The matching figures for `Cn1cnnc1CCn1c(CN2CCC(c3cccc(OCc4ccc(Cl)cc4F)n3)CC2)nc2ccc(C(=O)O)cc21` [Example 11A-53, 2-[(4-{6-[(4-chloro-2-fluorobenzyl)oxy]pyridin-2-yl}piperidin-1-yl)methyl]-1-[2-(4-methyl-4H-1,2,4-triazol-3-yl)ethyl]-1H-benzimidazole-6-carboxylic acid]: 450 nM and 71%. As to `CCN1CCC[C@@H]1Cn1c(CN2CCC(c3cccc(OCc4ccc(Cl)cc4F)n3)CC2)nc2ccc(C(=O)O)cc21` [Example 11A-54, 2-[(4-{6-[(4-chloro-2-fluorobenzyl)oxy]pyridin-2-yl}piperidin-1-yl)methyl]-1-{[(2R)-1-ethylpyrrolidin-2-yl]methyl}-1H-benzimidazole-6-carboxylic acid], the concentration for a half-maximal effect (EC50) came to 500 nM and the maximum response (Emax) is 69%.
